Results as given in the NIST ThermoML archive (doi:10.1016/j.jct.2016.01.019).

Assay: refractive index (other wavelength) (dimensionless); xn = mol fraction of the nth substance listed
Conditions: 94.64 kPa, Liquid, Standard Abbe refractometry

OCCCO [propan-1,3-diol] + CC(O)CO
refractive index
Conditions | x2 = 0 | x2 = 0.0985 | x2 = 0.2023 | x2 = 0.3015 | x2 = 0.3961 | x2 = 0.5009 | x2 = 0.5961 | x2 = 0.6965 | x2 = 0.7974 | x2 = 0.8985
293.15 K, Wavelength=404.7 nm | 1.45177 | 1.45152 | 1.45117 | 1.45077 | 1.45025 | 1.44969 | 1.44909 | 1.44823 | 1.44738 | 1.44618
293.15 K, Wavelength=435.8 nm | 1.44842 | 1.44817 | 1.44786 | 1.44741 | 1.44688 | 1.44623 | 1.4456 | 1.44492 | 1.44401 | 1.44315
293.15 K, Wavelength=486.1 nm | 1.4444 | 1.44417 | 1.44386 | 1.44341 | 1.4429 | 1.44217 | 1.44132 | 1.44021 | 1.43935 | 1.43821
293.15 K, Wavelength=546.1 nm | 1.44112 | 1.44088 | 1.44041 | 1.44013 | 1.43961 | 1.43884 | 1.43806 | 1.43695 | 1.4362 | 1.43491
293.15 K, Wavelength=587.6 nm | 1.43939 | 1.43913 | 1.43875 | 1.4384 | 1.43788 | 1.43721 | 1.43623 | 1.43524 | 1.43439 | 1.43321
293.15 K, Wavelength=632.8 nm | 1.43781 | 1.43756 | 1.43729 | 1.43683 | 1.43632 | 1.43545 | 1.43467 | 1.43369 | 1.43253 | 1.43168
293.15 K, Wavelength=644 nm | 1.43746 | 1.43722 | 1.43699 | 1.43649 | 1.43597 | 1.43501 | 1.43435 | 1.43334 | 1.43219 | 1.43133
293.15 K, Wavelength=706.5 nm | 1.43577 | 1.43555 | 1.43506 | 1.43479 | 1.43428 | 1.43373 | 1.43315 | 1.43207 | 1.4311 | 1.42985
298.15 K, Wavelength=404.7 nm | 1.45037 | 1.44979 | 1.44932 | 1.4489 | 1.44849 | 1.44768 | 1.44694 | 1.44595 | 1.44515 | 1.44396
298.15 K, Wavelength=435.8 nm | 1.447 | 1.44654 | 1.44606 | 1.44553 | 1.44512 | 1.44432 | 1.4436 | 1.44261 | 1.44156 | 1.44059
298.15 K, Wavelength=486.1 nm | 1.44301 | 1.44246 | 1.44198 | 1.44156 | 1.44107 | 1.44037 | 1.43963 | 1.43868 | 1.43776 | 1.43667
298.15 K, Wavelength=546.1 nm | 1.43975 | 1.43919 | 1.43879 | 1.4383 | 1.43762 | 1.43712 | 1.43618 | 1.43541 | 1.43467 | 1.43341
298.15 K, Wavelength=587.6 nm | 1.43802 | 1.43746 | 1.437 | 1.43658 | 1.43619 | 1.43539 | 1.43469 | 1.43371 | 1.43285 | 1.43168
298.15 K, Wavelength=632.8 nm | 1.43645 | 1.4359 | 1.43532 | 1.43502 | 1.43462 | 1.43383 | 1.43322 | 1.43217 | 1.43136 | 1.43004
298.15 K, Wavelength=644 nm | 1.43611 | 1.43555 | 1.43498 | 1.43455 | 1.43428 | 1.43349 | 1.433 | 1.43183 | 1.43102 | 1.4298
298.15 K, Wavelength=706.5 nm | 1.43441 | 1.43388 | 1.43335 | 1.43299 | 1.4326 | 1.43191 | 1.43129 | 1.43036 | 1.42924 | 1.42812
303.15 K, Wavelength=404.7 nm | 1.44902 | 1.44844 | 1.44795 | 1.44749 | 1.44689 | 1.44619 | 1.44547 | 1.44435 | 1.44351 | 1.44237
303.15 K, Wavelength=435.8 nm | 1.44566 | 1.44521 | 1.44451 | 1.44394 | 1.44353 | 1.44285 | 1.44213 | 1.44101 | 1.44017 | 1.43903
303.15 K, Wavelength=486.1 nm | 1.44168 | 1.44133 | 1.44074 | 1.44019 | 1.43962 | 1.43892 | 1.43821 | 1.43713 | 1.43628 | 1.43516
303.15 K, Wavelength=546.1 nm | 1.43844 | 1.43797 | 1.43739 | 1.43695 | 1.43637 | 1.43567 | 1.43498 | 1.43387 | 1.43316 | 1.43194
303.15 K, Wavelength=587.6 nm | 1.43671 | 1.43615 | 1.43575 | 1.43524 | 1.43466 | 1.43396 | 1.43314 | 1.43216 | 1.43125 | 1.43024
303.15 K, Wavelength=632.8 nm | 1.43514 | 1.4344 | 1.43386 | 1.43339 | 1.43311 | 1.43232 | 1.43161 | 1.43065 | 1.42981 | 1.42869
303.15 K, Wavelength=644 nm | 1.4348 | 1.43405 | 1.43371 | 1.43304 | 1.43277 | 1.43207 | 1.43136 | 1.43031 | 1.42947 | 1.42834
303.15 K, Wavelength=706.5 nm | 1.43312 | 1.43234 | 1.43183 | 1.43136 | 1.43109 | 1.4304 | 1.42989 | 1.42884 | 1.428 | 1.42669
